Assay results published in ChEMBL document CHEMBL3044695, “Synthesis and insect antifeedant activity of C-2 and C-5 substituted perhydrofurofurans and 3a-hydroxy-perhydrofurofurans (Part I)” (Tetrahedron, 1999).

How the values were obtained:
Pieris brassicae [1] = test: Antifeedant activity against fifth-instar larvae of Pieris brassicae on cabbage leaf discs at 5 mM measured upto 3 hr time period by two-choice bioassay; assay type: functional
Pieris brassicae [2] = test: Post-ingestive toxicity in Pieris brassicae on cabbage leaf discs at 5 mM; assay type: organism-based; details: in vivo, po, 5000 µM
Pieris brassicae [3] = test: Antifeedant activity against fifth-instar larvae of Pieris brassicae on cabbage leaf discs at 5 mM measured 1.5 to 3 hr time period by no-choice bioassay; assay type: functional
Pieris brassicae [4] = test: Antifeedant activity against fifth-instar larvae of Pieris brassicae on cabbage leaf discs at 5 mM measured 0 to 1.5 hr time period by no-choice bioassay; assay type: functional

| Structure (SMILES) | AFI (Pieris brassicae [1]) [%] | Activity (Pieris brassicae [2]) | AFI (Pieris brassicae [3]) [%] | AFI (Pieris brassicae [4]) [%] |
| --- | --- | --- | --- | --- |
| O[C@]12CCO[C@H]1O[C@H](C1CCCCC1)C2 | 24 | – | – | – |
| O=C1C[C@]2(O)C[C@@H](C3CCCCC3)O[C@@H]2O1 | 9 | – | – | – |
| CC(=O)OC1C[C@]2(O)C[C@@H](C3CCCCC3)O[C@@H]2O1 (some centres undefined) | 9 | – | – | – |
| OC1C[C@]2(O)C[C@@H](C3CCCCC3)O[C@@H]2O1 (some centres undefined) | 16 | – | – | – |
| COC1C[C@]2(O)C[C@@H](C3CCCCC3)O[C@@H]2O1 (some centres undefined) | 18 | – | – | – |
| O[C@]12C=CO[C@H]1O[C@H](C1CCCCC1)C2 | 54 | – | – | – |
| CCCCCCCCCCC1C[C@H]2CC(=O)O[C@H]2O1 (some centres undefined) | 41 | – | – | – |
| C1=C[C@@H]2CC(c3ccccc3)O[C@@H]2O1 (some centres undefined) | 11 | Non-toxic | -2.6 | -1.7 |
| CCCCCCC1C[C@H]2CC(=O)O[C@H]2O1 (some centres undefined) | -11 | – | – | – |
| CCCCCCC1C[C@H]2C=CO[C@H]2O1 (some centres undefined) | 11 | Non-toxic | 10.6 | 20.3 |
| O=C1C[C@H]2CC(C3CCCCC3)O[C@H]2O1 (some centres undefined) | 10 | Non-toxic | 13.9 | 22.4 |
| CC(=O)OC1C[C@H]2CC(C3CCCCC3)O[C@H]2O1 (some centres undefined) | 16 | Non-toxic | 3 | 16.7 |
| CCOC1C[C@H]2CC(C3CCCCC3)O[C@H]2O1 (some centres undefined) | 20 | Non-toxic | 9.5 | 18.3 |
| C1CCC(C2C[C@@H]3CCO[C@@H]3O2)CC1 (some centres undefined) | 26 | Non-toxic | 5.4 | 6.7 |
| OC1C[C@H]2CC(C3CCCCC3)O[C@H]2O1 (some centres undefined) | 10 | Non-toxic | 15.9 | 18.6 |
| C1=C[C@@H]2CC(C3CCCCC3)O[C@@H]2O1 (some centres undefined) | -2.5 | Non-toxic | -12.3 | -9.3 |
| CCCCCCCCCC[C@@H]1C[C@H]2CC(=O)O[C@H]2O1 (racemic) | 10 | – | – | – |
| O=C1C[C@@H]2C[C@@H](c3ccccc3)O[C@@H]2O1 (racemic) | 18 | – | – | – |
| O=C1C[C@@H]2C[C@H](C3CCCCC3)O[C@@H]2O1 (relative stereo) | 24 | – | – | – |
| O=C1C[C@H]2C[C@@H](C3CCCCC3)O[C@@H]2O1 (relative stereo) | 9 | – | – | – |
